Laboratory results taken from article PMC7206614, “Photoswitchable ORG25543 Congener Enables Optical Control of Glycine Transporter 2” (ACS Chemical Neuroscience, 2020).
pEC50, pIC50: −log10 of the molar value. Entries after “also recorded” stand apart in the source; their conditions may differ.

Legend:
[1] = biological target: T1, GlyT2 (Homo sapiens, UniProt Q9Y345); assay: Two-electrode voltage clamp of glycine transport currents in Xenopus laevis oocytes expressing GlyT2; format: cell-based; settings: for reversibility: restoration of glycine transport currents after washout: inhibition at IC50 concentrations (1: 4 nM, 2: 50 nM), washed with ND96 for 30 min, glycine reapplied at 5 min intervals; for pIC50: oocytes expressing GlyT2, Figure 4A, range in brackets, read-out: IC50, reduction of glycine transport currents
T1 construct: expressed in transfected cells; host or cells: Xenopus laevis oocytes injected with in vitro transcribed RNA
T1 sequence (Q9Y345 1-797): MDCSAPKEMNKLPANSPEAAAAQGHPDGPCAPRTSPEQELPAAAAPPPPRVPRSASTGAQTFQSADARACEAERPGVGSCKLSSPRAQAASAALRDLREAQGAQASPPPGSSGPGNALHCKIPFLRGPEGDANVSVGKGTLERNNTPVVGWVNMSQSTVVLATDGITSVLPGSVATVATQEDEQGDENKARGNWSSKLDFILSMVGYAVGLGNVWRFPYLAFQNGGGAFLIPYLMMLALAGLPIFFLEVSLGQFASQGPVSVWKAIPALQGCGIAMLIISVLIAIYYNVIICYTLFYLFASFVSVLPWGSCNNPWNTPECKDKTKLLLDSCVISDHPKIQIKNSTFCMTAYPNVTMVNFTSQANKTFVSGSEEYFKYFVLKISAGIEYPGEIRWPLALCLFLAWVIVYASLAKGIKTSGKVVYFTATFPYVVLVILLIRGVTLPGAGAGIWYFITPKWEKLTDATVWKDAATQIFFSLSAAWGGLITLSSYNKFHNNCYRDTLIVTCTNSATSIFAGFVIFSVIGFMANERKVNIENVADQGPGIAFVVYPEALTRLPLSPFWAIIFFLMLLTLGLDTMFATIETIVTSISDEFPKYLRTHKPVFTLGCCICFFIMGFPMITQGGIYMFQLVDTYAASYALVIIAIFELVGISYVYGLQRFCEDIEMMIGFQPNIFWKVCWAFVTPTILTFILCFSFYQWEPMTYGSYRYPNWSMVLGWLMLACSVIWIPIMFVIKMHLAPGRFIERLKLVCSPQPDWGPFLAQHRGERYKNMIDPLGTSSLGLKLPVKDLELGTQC

[2] = tested on: rodents; settings: cited from earlier work
[3] = tested on: rodent models of neuropathic pain; settings: cited from earlier work
[4] = tested on: GlyT2; design: method as in PMID 23962079; settings: cited from earlier work; for pIC50: two-electrode voltage clamp, Xenopus laevis oocytes expressing GlyT2, read-out: IC50 at GlyT2 (potency); for reversibility of GlyT2 inhibition: washout from oocytes expressing GlyT2
[5] = design: method as in PMID 23962079; settings: cited from earlier work
[6] = tested on: mouse spinal cord slices; design: method as in PMID 15235081; settings: exposure of mouse spinal cord slices for >10 min; cited from earlier work

Structure (SMILES)	pEC50 [1]	adverse side effects ([2]; rodent)	reversibility: restoration of glycine transport currents after washout [1]	pIC50 [1]	analgesia in rodent models of neuropathic pain [3]	pIC50 [4]	reversibility of GlyT2 inhibition [4]	blood brain barrier permeability [5]	toxicity on acute dosing in rodents [2]	effect on inhibitory postsynaptic currents [6]	effect on neuropathic pain (hyperalgesia and allodynia) [3]
NCC(=O)O [glycine]	4.84										
COc1cc(C(=O)NCC2(N(C)C)CCCCC2)ccc1OCc1ccccc1 [compound 2]		no adverse side effects	restoration of glycine transport currents	7.31	produced analgesia	7.00	readily reversible; also recorded: allows for restoration of glycine currents	blood brain barrier permeable			
COc1cc(C(=O)NCC2(N(C)C)CCCC2)cc(OC)c1OCc1ccccc1 [ORG25543]			no reversibility	8.42		7.70	irreversible; also recorded: cannot be restored		excitotoxicity, hyperekplexia-like symptoms, and in severe cases death	long-term reduction of inhibitory postsynaptic currents	ameliorates both hallmarks of neuropathic pain
